# Test results: paper PMC11219860, “A chemogenetic approach for dopamine imaging with tunable sensitivity” (Nature Communications, 2024)
# Tests used:
# DRD1-MSNs = experiment: Whole-cell electrophysiology of DRD1-MSNs in dorsal striatum brain slices; assay type: cell-based, mouse
# Procedure: For experiments involving SKF38393 application, to identify DRD1 receptor (DRD1)-positive neurons in the dorsal striatum, DRD1:cre mice injected with AAV5-hSyn-dlox-ChrimsonR-tdTomato were used. 3–4 weeks after viral injection, mice were anesthetized with 5% isoflurane and euthanized by decapitation. […] Slices were kept at 34 °C for 10–20 minutes and then at room temperature until recordings. In the recording chamber, slices were superfused with ACSF at 30–32 °C. Patch pipettes (3–7 MΩ) were pulled from borosilicate glass pipettes (GC150T-10, Harvard Apparatus). The internal solution contained (in mM): potassium gluconate 130, MgCl2 4, MgATP 3.4, Na3GTP 0.1, creatine phosphate 10, HEPES 5, and EGTA 1.1. The membrane potential was measured using EPC 10 USB Patch Clamp Amplifiers (HEKA). The access resistance was monitored by a hyperpolarizing step of −10 mV. The identification of DRD1-positive neurons was performed by the presence of red fluorescence protein and photo-evoked current or potential (@2 Hz, 10 ms duration, 2 pulses or 500 ms continuous pulse. light source: Colibri 7, Zeiss; 630 nm wavelength, 1 mW). To assess the excitability of neurons, positive currents were injected (0–500 pA) and the number of action potentials was counted at each current step. To measure input resistance, negative currents were injected (−200 to 0 pA, every 50 pA, 500 ms), as previously described. The resting membrane potential was measured at 0 pA current input.
# Action potentials were evoked by current injection (50–500 pA, 500 ms) in current-clamped neurons. Neurons were recorded from in the presence of picrotoxin (100 µM), CGP55485 (0.3 µM), DNQX (10 µM), and MK801 (10 µM) to block GABAA, GABAB, AMPA and NMDA receptors, respectively. DA (10 µM) was applied to brain slices in the presence of cocaine (5 µM) to prevent reuptake.
# NAc DRD1-MSNs = experiment: Footshock-induced NAc DRD1-MSN activity (jGCaMP8m photometry); conditions: DETQ 10 mg/kg; SCH-23390 0.1 mg/kg i.p.
# Procedure: Cue-reward paradigm (NAc recordings) was carried out in an operant chamber within a sound-attenuating box with low red light illumination (30 Lux). […] During the next session mice were trained to initiate reward delivery via licking. […] During expert sessions CS-US pairings were repeated 20 times per session ( ~ 30 min for each session). Mice underwent a total of 12 sessions for cue-reward learning. 10 minutes before each session drugs were injected i.p. […] The rewards were delivered from 10 to 40 min post vehicle or DETQ injection. Chambers and lick ports were sanitized with ethanol between mice. For all sessions, lick data and photometry recordings were simultaneously obtained; licking behaviour was detected by a capacity-based sensor. Latency to reward-anticipatory licking was calculated as the time between the CS and lick onset. The lick proportion was calculated as the percent time mice spent licking during CS presentation divided by the percent time mice spent licking during the rest of the session (without CS). […] Fiber photometry recordings were analyzed using custom-written Matlab scripts. […] Change in fluorescence, ΔF/F0 (%), was defined as (F-F0)/F0 x 100, where F represents the fluorescent signal (465-nm) at each time point. F0 was calculated by applying a least-squares linear fit (polyfit) to the 405-nm signal to align with the 465-nm signal. […]
# dLight1.3b = experiment: In vivo photometry of optogenetically-evoked DA release in PFC; set-up: species or system mouse; conditions: DETQ 10 mg/kg i.p.
# Procedure: Fiber photometry combined with optogenetics was conducted using a RZ10X LUX-I/O Processor with integrated LEDs (Tucker-Davis Technologies) combined with a filter/mirror minicube set (FMC6_IE(400-410)_E1(467-497)_F1(507-554)_E2(566-586)_F2(600-680)_S) (Doric Lenses). […] Low-autofluorescence patch cords (400 µm/0.57 NA, Doric) were attached to the optic fibers (400 µm/0.66 NA, Doric) on the mouse’s head to collect fluorescence emissions. Signals were filtered through 500–540 nm GFP emission filters coupled to a photodetector on the RZ10X. […] Data were sampled at 1017.3 Hz. […] For optogenetic stimulation, a 635 nm LED was passed through the 580–680 nm minicube F2 port and reached the mouse through the same unique optic fiber; the LED was driven at 1 to 3 mW. To determine the ‘temporal window for stable imaging’ in the PFC using dLight1.3b recordings, DAT^IREScre mice expressing ChrimsonR in VTA DA axons and dLight1.3b in the PFC were injected i.p. with vehicle at 0 min, followed by DETQ (10 mg/kg) 25 min later. After each injection, PFC DA axons were optically (opto) activated across 5 trials (2 s, 20 Hz, 20-ms pulses) for the vehicle (20 min) and […] for DETQ (1h05 min) every 5 min. DA release was measured with fiber photometry. In another session, the same mice were injected with Veh, then DETQ (10 mg/kg) 20 min later, then cocaine (20 mg/kg) 25 min later, and the same optogenetic protocol was applied (2 s, 20 Hz, 20-ms pulses every 5 min). For optogenetic validation of AlloLite-ctr in the NAc, DAT^IREScre mice expressing ChrimsonR in VTA DA axons were injected i.p. with vehicle (Day 1) or DETQ (10 mg/kg) (Day 8) at 0 min, followed by cocaine (20 mg/kg) 20 min later. After each injection, NAc DA axons were optically (opto) activated across 3 trials (2 s, 20 Hz, 20-ms pulses) every 5 min and DA released measured with fiber photometry. […] After each injection, NAc DA axons were optically (opto) inhibited (10 s, continuous trials) every 3 min (8 trials/condition) and DA released measured with fiber photometry. […] DA release was measured with fiber photometry.
# For long-term recordings during optogenetic stimulation or chemogenetic inhibition linear fit was calculated across the entire recording or across the vehicle epoch; for event-related experiments fit was performed on fluorescent data obtained in the −60 to +60 s around opto events or −5 to −1 s around behavioral events. […] DA event-related responses were quantified by computing the value at the transient’s peak value and the AUC in the 0 to 10 s or 0 to 60 s period post-event onset. […] The maximal peak value of Veh-normalized ΔF/F0 after opto-onset was plotted over time and the plateau of maximal response was determined by averaging peak opto responses 5, 10, 15 and 20 min post-DETQ. […]
smiles,measurement,setting,value
"C[C@H]1c2cccc(C(C)(C)O)c2C[C@H](CO)N1C(=O)Cc1c(Cl)cccc1Cl [DETQ, 2-(2,6-dichlorophenyl)-1-((1S,3R)-3-(hydroxymethyl)-5-(2-hydroxypropan-2-yl)-1-methyl-3,4-dihydroisoquinolin-2(1H)-yl)ethan-1-one]",number of action potentials: DA with versus without DETQ,"DRD1-MSNs; DA 10 µM, DETQ 200 nM",no significant difference
same,resting membrane potential or excitability of DRD1-MSNs,DRD1-MSNs; DETQ 200 nM superfusion,No noticeable changes
same,footshock-induced activity in NAc DRD1-MSNs,NAc DRD1-MSNs,remained unaffected
same,duration of stable increase in DA sensitivity,dLight1.3b,31 min
same,opto-evoked DA signal amplitude,dLight1.3b,clear and significant increase
same,opto-evoked DA signal decay time,dLight1.3b,clear and significant increase
